According to US20190290656A1, “PT(IV) PRODRUGS” (YISSUM RESEARCH DEVELOPMENT COMPANY OF THE HEBREW …, priority 2015, published 2019):
Several values for one entry are separate records, joined by “and”; a condition that tells them apart may be missing. Identical values can stand only once.

How the values were obtained:
[1] = test system: PSN-1 cells; experiment: Mitochondrial membrane potential (Mito-ID), PSN-1; format: cell-based, human; details: 12 h of incubation
Description: Mitochondrial membrane potential (ΔΨ). ΔΨ was assayed using the Mito-ID Membrane Potential Kit according to the manufacturer's instructions (Enzo Life Sciences, Farmingdale, N.Y.). Briefly, 2008 and PSN1 cells were seeded onto 96-well microplates at 5.10^4 cells/well. After 24 h, cells were treated with tested compounds for 6, 12 and 24 h. The mitochondrial depolarizing agent, carbonyl cyanide 3-chlorophenylhydrazone (CCCP) was employed as positive control. An equal volume of cationic dye loading solution was added to each well and cell plates were incubated for additional 30 min at 37° C. Plates were read at excitation/emission wavelengths 490 and 590 nm using a fluorescence microplate reader (Fluoroskan Ascent FL, Labsystem, Finland).
In addition, it is interesting to note that treatment of 2008 and PSN-1 cells with 3a and 3b determined a significant time-dependent increase in the number of cells with depolarized mitochondria (data not shown). In particular, after 12 h of incubation, 3a elicited an increase of about 39% of PSN-1 cells with depolarized mitochondrial potential FIG. 12B). Again, the reference compound [Pt(DACH)(56Phen)] was effective in hampering cellular mitochondrial membrane potential in both tested cancer cell lines.

[2] = Cyclic voltammetric measurements; format: physicochemical; details: cyclic voltammetry
Description: Finally, units 1a and 2a (Scheme 4) were used for the formation of a peptide bond, to afford 3a. DMSO turned out to be a good solvent for this reaction, although DMF also afforded good results. ^1H NMR assignments for 1a, 2a, and 3a (Scheme 4) are summarized in Table 4. Cylic voltammetric measurements (CV) were performed on complex 3a and 3b finding Ep values of −0.462 and −0.058 V. The first reduction peak was assigned to the reduction of the cisplatin-derivative portion of the dinuclear complex, because of similarity with the values reported for similar complexes. The less negative reduction peak was assigned to the Pt-Phenantroline metal center, because of similarity to the values reported for the bis axial phenylbutyrato Pt(IV) complex Pt56MeSS(PhB)2.

[3] = test system: Histone deacetylase (HDAC); experiment: Histone deacetylase assay (Fluor-de-Lys) in MCF-7 cells; format: cell-based, human; details: MCF-7, 24 h, IC50 concentrations
Description: Histone deacetylase activity was determined using Fluor-de-Lys® HDAC fluorometric activity assay kit (Enzo Life Sciences International, Inc., Plymount Meeting, Pa., U.S.A.). […] Fluorescence was measured using a Fluoroskan Ascent FL (Labsystem, Finland) plate reader, with excitation at 360 nm and emission at 460 nm. For comparison purpose, the HDAC activity was also measured in nuclear extracts of MCF-7-treated cells by means of the same fluorometric activity assay kit. In this latter case, MCF-7 nuclear extracts were obtained as follow: cell pellets were re-suspended in lysis buffer [Tris.HCl (10 mM, pH 8.0), KCl (60 mM), EDTA (1.2 mM), DTT (1 mM), PMSF (0.05 mM), NP-40 (0.05%)] and kept on ice for 10 min. Subsequently, samples were centrifuged at 1000 g and re-suspended in the nuclear extraction buffer [Tris.HCl (20 mM, (pH 8.0), NaCl (420 mM), MgCl2 (0.7 mM), EDTA (0.25 mM), glycerol (25%)] for 30 min at 4° C., and then centrifuged at 15000 g for 15 min at 4° C.
The complexes described here were specifically designed to release either VPA of PhB inside the cells in the hope that they will inhibit HDAC activity paving the way for more efficient DNA platination. Thus, in addition to measuring the levels of DNA platination, we also measured the ability of these pro-drugs to inhibit HDAC activity in cells. […] For comparison purposes, the HDAC inhibitory effect determined by tested complexes was also assayed in isolated nuclei of MCF-7 treated cells (FIG. 3B).
The HDAC activity was determined by the Fluor de Lys® Fluorescent Cellular Activity Assay (Enzo Life Sciences).
Also, MCF-7 cells were incubated for 24 h with increasing concentrations of compounds I-VIII and their HDAC activity was determined. The IC50 values for the inhibition of HDAC activity in the cells are depicted in FIG. 3C.

[4] = test system: A549 cells; experiment: MTT cytotoxicity assay, A549; format: cell-based, human; details: A549, 72 h exposure, MTT; read-out: IC50 (median growth inhibitory concentration)
Description: (§1) Cisplatin (CDDP) and oxaliplatin (OXP) were dissolved just before the experiment in a 0.9% NaCl solution.
(§2) Human prostate adenocarcinoma (PC3) cells were obtained from European Collection of Cell Cultures (ECACC, Salisbury, UK). Human ovarian cancer cell lines A2780 and its cisplatin resistant variant, A2780cisR, were kindly provided by Prof.
(§3) Triplicate cultures were established for each treatment.

[5] = test system: nine cancer cell lines; experiment: MTT cytotoxicity, over the nine cancer cell lines; details: read-out: average IC50 values for the nine cancer cell lines; mean over nine cell lines, 72 h MTT
[6] = test system: MCF-7 cells; experiment: MTT cytotoxicity assay, MCF-7; format: cell-based, human; details: MCF-7, 72 h exposure, MTT; read-out: IC50 (median growth inhibitory concentration)
Description: as §1, §2, §3

[7] = test system: BxPC3 cells; experiment: MTT cytotoxicity assay, BxPC3; format: cell-based, human; details: BxPC3, 72 h exposure, MTT; read-out: IC50 (median growth inhibitory concentration)
[8] = test system: Lewis lung carcinoma (LLC); experiment: In vivo efficacy study, Lewis lung carcinoma mouse model; design: species or system C57BL mice; details: day 7-14
Description: A preliminary in vivo efficacy study was carried out on a mouse model (see Table 3 below):
Lewis lung carcinoma (LLC) was implanted i.m. (2·10^6 cells inoculum) into the right hind leg of 8-week old inbred C57BL mice (24±3 g body weight). Chemotherapy was delayed until the tumor became visible (day 7).

[9] = test system: A2780 cells; experiment: MTT cytotoxicity assay, A2780; format: cell-based, human; details: A2780, 72 h exposure, MTT; read-out: IC50 (median growth inhibitory concentration)
Description: Platinum(IV) complexes were dissolved in DMSO to stock solutions of 1 mg/mL just before the experiment, and a calculated amount of drug solution was added to the cell growth medium to a final solvent concentration of 0.5%, which had no discernible effect on cell killing. Cisplatin (CDDP) and oxaliplatin (OXP) were dissolved just before the experiment in a 0.9% NaCl solution.
as §2
Cancer Res. 1988, 48, 589-601]. […] Triplicate cultures were established for each treatment.

| Molecule | increase of cells with depolarized mitochondrial potential [1] | Ep, first reduction peak (cisplatin-derivative portion) [2] [V] | Ep, less negative reduction peak (Pt-Phenantroline metal center) [2] [V] | effect on HDAC activity (in words) [3] | IC50 [4] [µM] | IC50 [5] | IC50 [6] [µM] | IC50 [7] [µM] | Average tumor weight (mean ± SD, g) ([8]; daily dose 1.5 mg kg^-1 i.p.) [g] | Inhibition of tumor growth (%) ([8]; daily dose 1.5 mg kg^-1 i.p.) | Average tumor weight (mean ± SD, g) ([8]; daily dose 3 mg kg^-1 i.p.) [g] | Inhibition of tumor growth (%) ([8]; daily dose 3 mg kg^-1 i.p.) | IC50 [9] [µM] |
| --- | --- | --- | --- | --- | --- | --- | --- | --- | --- | --- | --- | --- | --- |
| c,c,t,t,c,c-[(DACH)(56Phen)(PhBu)Pt(μ-OOC—(CH2)2—CONH(CH2)3COO)—Pt(DCA)(NH3)2 (Cl2)](TFA)2 [Compound 3a] | about 39% | −0.462 | −0.058 |  |  |  |  |  |  |  |  |  |  |
| [NH2][Pt]([NH2])([Cl])[Cl] [CDDP, Cisplatin, reference compound] |  |  |  | not effective in modifying HDAC activity | 8.35 ± 0.87 | 9.18 µM and 9.9 µM | 17.4 ± 0.2 | 11.4 ± 1.14 | 0.150 ± 0.07 | 73.35 | 0.044 ± 0.07 | 92.18 | 2.8 ± 0.2 |
